Paper PMC10447463, “Data-mining unveils structure–property–activity correlation of viral infectivity enhancing self-assembling peptides” (Nature Communications, 2023)
Where two headings read alike, the source gives them in different places.

Legend:
[1] = type: physicochemical
Method in brief: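 Preformed peptide fibrils (1 mg/mL) mixed with 50 µM ThT in PBS, 15 min at RT, fluorescence ex 440/em 488 nm versus PBS blank, triplicates. Zeta potential: peptides at 1 mg/mL in PBS pH 7.4, aged 1 d at RT, diluted in 1 mM KCl, Smoluchowski from electrophoretic mobility.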

[2] = Turbidity, derived count rate of scattered light; type: physicochemical; conditions: for Log Count Rate: log of derived count rate
Method in brief: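 Samples: 1 mg/mL in PBS pH 7.4 (from DMSO), 1 d at RT, then diluted in 1 mM KCl immediately before measurement. Triplicates, two independent runs averaged.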

[3] = ThT fluorescence relative to blank (42.1851851851852 a.u.)
[4] = relative to blank 42.1851851851852 a.u.
[5] = category 1 or 0 from count rate, key not given
[6] = derived count rate of scattered light, mean, std deviation in next column
[7] = derived count rate of scattered light, mean, std deviation in separate column
[8] = ThT fluorescence relative to blank, blank = 42.1851851851852
[9] = derived count rate from zeta measurement, mean
[10] = derived count rate of scattered light
[11] = Fig S8 panels A, C, asymmetric log errors
[12] = Fig S8 panels B, D, turbidity, derived count rate of scattered light
[13] = category 1 or 0 derived from the count rate, key not given

Substance | Tht rel to blank (42.1851851851852) [1, 3] | Tht category (> 1.5 to blank = +) ([1]; category 1/0) | Tht rel to blank (42.1851851851852) [1, 4] | Zeta Count Rate Category ([2]; category 1/0, no key printed) | Zeta Count Rate Category [2, 5] | Zeta Count Rate / kcps [2, 6] [kcps] | Zeta Count Rate / kcps [2, 7] [kcps] | Tht rel to blank (42.1851851851852) [1, 8] | Zeta Count Rate Category ([2]; category 1 / 0, no key given) | Zeta Count Rate / kcps [2, 10] [kcps] | further results
KIKIQINM [JGB2] | 1.587 | 0 (ThT-inactive (N-Fold <2)) | 1.587 | 1 | 1 | 262.1 | 262.1 |  |  |  | 
KIKIQINMW [JGB1 /TM85] | 4.61 | 1 (ThT. Cat is 1, if Rel. ThT >2) | 4.61 |  | 1 | 239.6 | 239.6 |  |  |  | 
KIKIQINMWQ [JG1] | 5.939 | 1 (ThT. Cat is 1, if Rel. ThT >2) | 5.939 | 1 | 1 | 2196 | 2196 |  |  |  | Tht category (> 1.5 to blank = +) ([1]; FigS26): 1 (Tht category (> 1.5 to blank = +))
KIKQII [msis21] | 1.001 | 0 (ThT-inactive (N-Fold <2)) |  |  | 1 | 122 |  | 1.001 | 1 | 122 | Zeta Count Rate / kcps [2, 9]: 122 kcps; Zeta Count Rate Category ([2]; key not given): 1
KIKQIINM [JGA2] | 1.176 |  |  |  | 1 | 2481 |  |  |  |  | Zeta Count Rate / kcps [2, 9]: 2481 kcps; Zeta Count Rate Category ([2]; key not given): 1
KIKQIINMWQ [JG2] | 4.945 | 1 (ThT. Cat is 1, if Rel. ThT >2) |  |  | 1 | 615.5 |  | 4.945 | 1 | 615.5 | Tht category (> 1.5 to blank = +) ([1]; FigS26): 1 (Tht category (> 1.5 to blank = +)); Log Count Rate [2, 11]: 2.789; Log Count Rate ([2]; Fig S8 panels B, D): 2.789; Count Rate [2, 12]: 615.53; Zeta Count Rate / kcps [2, 9]: 615.5 kcps; Zeta Count Rate Category ([2]; key not given): 1
KLKLQLL [TG4 / (KM2)] | 0.8415 | 0 (ThT-inactive (N-Fold <2)) |  |  |  | 72.67 |  | 0.8415 | 0 | 72.67 | Zeta Count Rate Category [2, 13]: 0
KLKQLL |  |  |  |  |  |  |  |  |  |  | Tht category (> 2 to blank = +) ([1]; Fig S10 panel D): 0 (ThT-inactive (N-Fold <2)); Tht category (> 2 to blank = +) ([1]; FigS12 panel A): 0 (ThT-inactive (N-Fold <2)); ThT Cat, ([1]; FigS12 panel B): 0 (ThT-inactive (N-Fold <2)); ThT Cat, ([1]; ThT category, 1 if Rel. ThT >2): 0 (ThT-inactive (N-Fold <2)); ThT Cat. ([1]; ThT fluorescence category, 1 if Rel. ThT >2): 0 (ThT-inactive (N-Fold <2)); ThT Cat. / ThT-Fluorescence (categorical) ([1]; ThT-active if fluorescence at least twice the control): 0 (ThT-inactive (N-Fold <2)); Log10 Count Rate ([2]; Log10 of derived count rate of scattered light (turbidity)): 2.505; Count Rate / kcps ([2]; derived count rate of scattered light at 633 nm, 173°, from zeta-potential measurement, 0.1 mg/mL in 1 mM KCl after 1 d at 1 mg/mL in PBS, turbidity / microscopic aggregation, mean of triplicate): 320 kcps; Log10 Count Rate ([2]; log10 of derived count rate of scattered light (turbidity)): 2.505; Log10 Count Rate ([2]; turbidity, Log10 of derived count rate of scattered light, Figure 3A source data): 2.505
KLKQLL [KM27 / psis14] | 1.089 | 0 (ThT-inactive (N-Fold <2)) |  |  |  | 319.9 |  | 1.089 | 1 | 319.9 | Zeta Count Rate Category [2, 13]: 1
KWKWQW [KB3] |  | 0 (ThT-inactive (N-Fold <2)) | 1.518 | 1 |  | 1545 |  |  |  |  | Log Count Rate [2, 11]: 3.189; Log Count Rate ([2]; Fig S8 panels B, D): 3.189; Count Rate [2, 12]: 1544.87
MKFKFQF [DF5 / CK16] |  | 0 (ThT-inactive (N-Fold <2)) | 0.9846 | 1 |  | 124 |  |  |  |  | 
MKIKIQINM [TM41] |  | 0 (ThT-inactive (N-Fold <2)) | 1.327 | 1 |  | 981.3 |  |  |  |  | 
MKIKIQINMWQ [TM52] | 4.061 | 1 (ThT. Cat is 1, if Rel. ThT >2) | 4.061 | 1 | 1 | 1475 | 1475 |  |  |  | 
QCKAKAQA [CK24] | 1.319 | 0 (ThT-inactive (N-Fold <2)) | 1.319 | 1 | 1 | 1319.1 | 1319.1 |  |  |  | Log Count Rate ([2]; Fig S8 panels B, D): 3.12; Count Rate [2, 12]: 1319.1
QCKAKAQANMWQ [CK22] | 1.496 | 0 (ThT-inactive (N-Fold <2)) | 1.496 | 1 | 1 | 427.5 | 427.5 |  |  |  | 
QCKFKFQF [CK9] | 2.014 | 1 (ThT. Cat is 1, if Rel. ThT >2) | 2.014 | 1 | 1 | 2669 | 2669 |  |  |  | 
QCKFKFQFNM [CK8] | 2.317 | 1 (ThT. Cat is 1, if Rel. ThT >2) | 2.317 | 1 | 1 | 3669.6 | 3669.6 |  |  |  | 
QCKFKFQFNMWQ [CK7] | 1.854 | 0 (ThT-inactive (N-Fold <2)) | 1.854 | 1 | 1 | 1208 | 1208 |  |  |  | 
QCKFKQFF [CK12] | 2.349 | 1 (ThT. Cat is 1, if Rel. ThT >2) | 2.349 |  |  | 225.4 | 225.4 | 2.349 | 1 | 225.4 | Zeta Count Rate Category [2, 13]: 1
QCKFKQFFNM [CK11] | 12.72 | 1 (ThT. Cat is 1, if Rel. ThT >2) | 12.72 |  |  | 10384.7 | 10384.7 | 12.72 | 1 | 10384.7 | Zeta Count Rate Category [2, 13]: 1
